Reference: patent US11173151B2, “Substituted triazole derivatives and uses thereof” (BAYER AKTIENGESELLSCHAFT, priority 2017, dated 2021)
Like-named read-outs stand apart in the source and are kept apart here.

Legend:
human V1a receptor = molecular target: T1, human V1a receptor (Homo sapiens, UniProt P37288); assay: Cellular in vitro assay for determining vasopressin receptor activity, V1a receptor cell line (CHO, aequorin luminescence); type: cell-based; conditions: for IC50: CHO cell line transfected with human V1a receptor, [Arg]-vasopressin at EC50 concentration, read-out: IC50 hV1a; for ratio IC50 hV2/hV1a: selectivity ratio IC50 hV2 / IC50 hV1a
T1 construct: expressed in transfected cells; host or cells: CHO K1 (ATCC), also stably transfected with a modified aequorin
T1 sequence (P37288 whole entry): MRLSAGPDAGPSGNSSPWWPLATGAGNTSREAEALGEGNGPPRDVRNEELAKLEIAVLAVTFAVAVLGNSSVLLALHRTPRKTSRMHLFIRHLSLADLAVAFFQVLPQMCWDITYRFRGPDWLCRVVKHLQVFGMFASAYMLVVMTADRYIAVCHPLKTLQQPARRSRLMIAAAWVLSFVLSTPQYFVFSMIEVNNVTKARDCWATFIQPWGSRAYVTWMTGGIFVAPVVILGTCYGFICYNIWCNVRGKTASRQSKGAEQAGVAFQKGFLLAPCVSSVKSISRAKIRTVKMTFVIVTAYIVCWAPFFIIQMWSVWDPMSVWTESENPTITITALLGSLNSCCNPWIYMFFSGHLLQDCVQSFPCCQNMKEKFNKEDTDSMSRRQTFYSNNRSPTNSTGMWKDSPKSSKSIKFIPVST
Outline: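 Luminescence from reconstituted aequorin, reporting intracellular calcium release, was measured immediately after adding [Arg]-vasopressin at EC50 concentration to CHO K1 cells pretreated 10 minutes with graded compound concentrations. Inhibition gave IC50 values.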

human V2 receptor = molecular target: T2, human V2 receptor (Homo sapiens, UniProt P30518); assay: Cellular in vitro assay for determining vasopressin receptor activity, V2 receptor cell line (CHO, CRE-luciferase); type: cell-based; conditions: CHO cell line transfected with human V2 receptor, [Arg8]-vasopressin at EC50 concentration, read-out: IC50 hV2
T2 construct: expressed in transfected cells; host or cells: CHO K1 (ATCC) expressing firefly luciferase under a CRE-responsive promoter
T2 sequence (P30518 whole entry): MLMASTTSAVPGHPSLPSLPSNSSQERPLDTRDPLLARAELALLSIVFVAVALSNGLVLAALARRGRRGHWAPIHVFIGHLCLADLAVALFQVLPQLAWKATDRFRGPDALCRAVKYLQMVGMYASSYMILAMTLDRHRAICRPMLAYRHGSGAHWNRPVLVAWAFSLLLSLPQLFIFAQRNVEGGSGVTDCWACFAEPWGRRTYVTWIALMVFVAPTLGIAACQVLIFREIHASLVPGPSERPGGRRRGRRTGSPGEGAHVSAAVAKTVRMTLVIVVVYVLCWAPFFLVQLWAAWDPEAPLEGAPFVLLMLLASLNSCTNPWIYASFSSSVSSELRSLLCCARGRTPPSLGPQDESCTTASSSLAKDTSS

Structure (SMILES)	IC50 (human V1a receptor) [nM]	ratio IC50 hV2/hV1a (human V1a receptor)	IC50 (human V2 receptor; 3 hours) [nM]	IC50 (human V2 receptor) [nM]
O=C(Nc1ncccc1-n1cnc(Cn2nc(-c3ccc(Cl)cc3)n(C[C@H](O)C(F)(F)F)c2=O)n1)[C@@H]1C[C@@H]1C(F)(F)F (racemic) [Example 79, N-{3-[3-({3-(4-Chlorophenyl)-5-oxo-4-[(2S)-3,3,3-trifluoro-2-hydroxypropyl]-4,5-dihydro-1H-1,2,4-triazol-1-yl}methyl)-1H-1,2,4-triazol-1-yl]pyridin-2-yl}-2-(trifluoromethyl)cyclopropanecarboxamide]	102	102.9	10500	–
O=C(N[C@H]1C[C@H]1F)c1cccc(Cl)c1-n1cnc(Cn2nc(-c3ccc(Cl)cc3)n(C[C@@H](O)C(F)(F)F)c2=O)n1 (racemic) [Example 397, 3-Chloro-2-[3-({3-(4-chlorophenyl)-5-oxo-4-[(2R)-3,3,3-trifluoro-2-hydroxypropyl]-4,5-dihydro-1H-1,2,4-triazol-1-yl}methyl)-1H-1,2,4-triazol-1-yl]-N-[2-fluorocyclopropyl]benzamide]	72	96.5	6950	–
O=C(N[C@@H]1C[C@@H]1F)c1cccc(C(F)(F)F)c1-n1cnc(Cn2nc(-c3ccc(Cl)cc3)n(C[C@H](O)C(F)(F)F)c2=O)n1 (racemic) [Example 413, 2-[3-({3-(4-Chlorophenyl)-5-oxo-4-[(2S)-3,3,3-trifluoro-2-hydroxypropyl]-4,5-dihydro-1H-1,2,4-triazol-1-yl}methyl)-1H-1,2,4-triazol-1-yl]-N-[2-fluorocyclopropyl]-3-(trifluoromethyl)benzamide]	34.5	59.4	–	2050
O=C(N[C@H]1C[C@H]1F)c1ncccc1-n1cnc(Cn2nc(-c3ccc(Cl)cc3)n(C[C@H](O)C(F)(F)F)c2=O)n1 (racemic) [Example 435, 3-[3-({3-(4-Chlorophenyl)-5-oxo-4-[(2S)-3,3,3-trifluoro-2-hydroxypropyl]-4,5-dihydro-1H-1,2,4-triazol-1-yl}methyl)-1H-1,2,4-triazol-1-yl]-N-[2-fluorocyclopropyl]pyridine-2-carboxamide]	24.5	43.5	–	1060
O=C(N[C@H]1C[C@H]1F)c1ncccc1-n1cnc(Cn2nc(-c3ccc(Cl)cc3)n(C[C@H](O)C(F)(F)F)c2=O)n1 (racemic) [Example 456, 3-[3-({3-(4-Chlorophenyl)-5-oxo-4-[(2S)-3,3,3-trifluoro-2-hydroxypropyl]-4,5-dihydro-1H-1,2,4-triazol-1-yl}methyl)-1H-1,2,4-triazol-1-yl]-N-[2-fluorocyclopropyl]pyridine-2-carboxamide]	12	65.4	–	785
O=C(N[C@H]1C[C@H]1F)c1cccnc1-n1cnc(Cn2nc(-c3ccc(Cl)cc3)n(C[C@H](O)C(F)(F)F)c2=O)n1 (racemic) [Example 504, 2-[3-({3-(4-Chlorophenyl)-5-oxo-4-[(2S)-3,3,3-trifluoro-2-hydroxypropyl]-4,5-dihydro-1H-1,2,4-triazol-1-yl}methyl)-1H-1,2,4-triazol-1-yl]-N-[2-fluorocyclopropyl]pyridine-3-carboxamide]	3.1	50.0	–	155
O=C1CN(c2nc(Cn3nc(-c4ccc(Cl)cc4)n(C[C@H](O)C(F)(F)F)c3=O)nn2-c2cccnc2C(=O)N[C@@H]2C[C@@H]2F)CCN1 (racemic) [Example 508, 3-[3-({3-(4-Chlorophenyl)-5-oxo-4-[(2S)-3,3,3-trifluoro-2-hydroxypropyl]-4,5-dihydro-1H-1,2,4-triazol-1-yl}methyl)-5-(3-oxopiperazin-1-yl)-1H-1,2,4-triazol-1-yl]-N-[2-fluorocyclopropyl]pyridine-2-carboxamide]	5150	4.6	–	23500
O=C1CN(C(=O)c2nc(Cn3nc(-c4ccc(Cl)cc4)n(C[C@H](O)C(F)(F)F)c3=O)nn2-c2cnccc2C(=O)N[C@H]2C[C@H]2F)CCN1 (racemic) [Example 517, 3-{3-({3-(4-Chlorophenyl)-5-oxo-4-[(2S)-3,3,3-trifluoro-2-hydroxypropyl]-4,5-dihydro-1H-1,2,4-triazol-1-yl}methyl)-5-[(3-oxopiperazin-1-yl)carbonyl]-1H-1,2,4-triazol-1-yl}-N-[2-fluorocyclopropyl]pyridine-4-carboxamide]	490	3.8	–	1840
O=C(N[C@H]1C[C@H]1F)c1cccnc1-n1nc(Cn2nc(-c3ccc(Cl)cc3)n(C[C@H](O)C(F)(F)F)c2=O)nc1C(=O)N1CCS(=O)(=O)CC1 (racemic) [Example 533, 2-{3-({3-(4-Chlorophenyl)-5-oxo-4-[(2S)-3,3,3-trifluoro-2-hydroxypropyl]-4,5-dihydro-1H-1,2,4-triazol-1-yl}methyl)-5-[(1,1-dioxidothiomorpholin-4-yl)carbonyl]-1H-1,2,4-triazol-1-yl}-N-[2-fluorocyclopropyl]pyridine-3-carboxamide]	146	21.8	–	3180

The remaining molecules from weak to strong by IC50 (human V1a receptor), led by results:

IC50 (human V1a receptor) [nM]	ratio IC50 hV2/hV1a (human V1a receptor)	IC50 (human V2 receptor; 3 hours) [nM]	IC50 (human V2 receptor) [nM]	Structure (SMILES)
4500	7.1	–	32000	O=C1CN(c2nc(Cn3nc(-c4ccc(Cl)cc4)n(C[C@H](O)C(F)(F)F)c3=O)nn2-c2cccnc2C(=O)N[C@H]2C[C@@H]2F)CCN1 (racemic) [Example 507, 3-[3-({3-(4-Chlorophenyl)-5-oxo-4-[(2S)-3,3,3-trifluoro-2-hydroxypropyl]-4,5-dihydro-1H-1,2,4-triazol-1-yl}methyl)-5-(3-oxopiperazin-1-yl)-1H-1,2,4-triazol-1-yl]-N-[2-fluorocyclopropyl]pyridine-2-carboxamide]
1080	1.4	–	1530	O=C1CN(C(=O)c2nc(Cn3nc(-c4ccc(Cl)cc4)n(C[C@H](O)C(F)(F)F)c3=O)nn2-c2ncccc2C(=O)N[C@H]2C[C@H]2F)CCN1 (racemic) [Example 527, 2-{3-({3-(4-chlorophenyl)-5-oxo-4-[(2S)-3,3,3-trifluoro-2-hydroxypropyl]-4,5-dihydro-1H-1,2,4-triazol-1-yl}methyl)-5-[(3-oxopiperazin-1-yl)carbonyl]-1H-1,2,4-triazol-1-yl}-N-[2-fluorocyclopropyl]pyridine-3-carboxamide]
365	3.0	–	1100	O=C(N[C@H]1C[C@H]1F)c1ccncc1-n1nc(Cn2nc(-c3ccc(Cl)cc3)n(C[C@H](O)C(F)(F)F)c2=O)nc1C(=O)N1CCS(=O)(=O)CC1 (racemic) [Example 523, 3-{3-({3-(4-Chlorophenyl)-5-oxo-4-[(2S)-3,3,3-trifluoro-2-hydroxypropyl]-4,5-dihydro-1H-1,2,4-triazol-1-yl}methyl)-5-[(1,1-dioxidothiomorpholin-4-yl)carbonyl]-1H-1,2,4-triazol-1-yl}-N-[2-fluorocyclopropyl]pyridine-4-carboxamide]
82.5	56.0	–	4620	CC(C)(N)CNC(=O)c1nc(Cn2nc(-c3ccc(Cl)cc3)n(C[C@H](O)C(F)(F)F)c2=O)nn1-c1cnccc1C(=O)N[C@H]1C[C@H]1F (racemic) [Example 535, 3-{5-[(2-amino-2-methylpropyl)carbamoyl]-3-({3-(4-chlorophenyl)-5-oxo-4-[(2S)-3,3,3-trifluoro-2-hydroxypropyl]-4,5-dihydro-1H-1,2,4-triazol-1-yl}methyl)-1H-1,2,4-triazol-1-yl}-N-[2-fluorocyclopropyl]pyridine-4-carboxamide]
30	93.3	–	2800	O=C(N[C@H]1C[C@@H]1F)c1cccc(C(F)(F)F)c1-n1cnc(Cn2nc(-c3ccc(Cl)cc3)n(C[C@H](O)C(F)(F)F)c2=O)n1 (racemic) [Example 422, 2-[3-({3-(4-Chlorophenyl)-5-oxo-4-[(2S)-3,3,3-trifluoro-2-hydroxypropyl]-4,5-dihydro-1H-1,2,4-triazol-1-yl}methyl)-1H-1,2,4-triazol-1-yl]-N-[2-fluorocyclopropyl]-3-(trifluoromethyl)benzamide]
23	27.0	620	–	O=C(Nc1cccnc1-n1cnc(Cn2nc(-c3ccc(Cl)cc3)n(C[C@H](O)C(F)(F)F)c2=O)n1)C1CC1(F)F (single isomer, unassigned) [Example 42]
10.5	52.7	553	–	O=C(Nc1ccncc1-n1cnc(Cn2nc(-c3ccc(Cl)cc3)n(C[C@H](O)C(F)(F)F)c2=O)n1)[C@@H]1C[C@@H]1F (single isomer, unassigned) [Example 35]
9.95	321.6	3200	–	O=C(Nc1ncccc1-n1cnc(Cn2nc(-c3ccc(Cl)cc3)n(C[C@H](O)C(F)(F)F)c2=O)n1)[C@H]1C[C@@H]1F (racemic) [Example 84, N-{3-[3-({3-(4-Chlorophenyl)-5-oxo-4-[(2S)-3,3,3-trifluoro-2-hydroxypropyl]-4,5-dihydro-1H-1,2,4-triazol-1-yl}methyl)-1H-1,2,4-triazol-1-yl]pyridin-2-yl}-2-fluorocyclopropanecarboxamide]
2.65	315.1	835	–	O=C(N[C@H]1C[C@H]1F)c1cccc(Cl)c1-n1cnc(Cn2nc(-c3ccc(Cl)cc3)n(C[C@H](O)C(F)(F)F)c2=O)n1 (racemic) [Example 389, 3-Chloro-2-[3-({3-(4-chlorophenyl)-5-oxo-4-[(2S)-3,3,3-trifluoro-2-hydroxypropyl]-4,5-dihydro-1H-1,2,4-triazol-1-yl}methyl)-1H-1,2,4-triazol-1-yl]-N-[2-fluorocyclopropyl]benzamide]
